Reference: ChEMBL document CHEMBL4145648, “Swinhoeisterols from the South China Sea Sponge Theonella swinhoei” (J Nat Prod, 2018)

Target: Histone acetyltransferase p300 (Homo sapiens, UniProt Q09472)
Experiment: Inhibition of human p300 expressed in Escherichia coli incubated for 15 mins followed by [3H]acetyl-CoA/histone addition

Sequence of Histone acetyltransferase p300 (Q09472 whole entry): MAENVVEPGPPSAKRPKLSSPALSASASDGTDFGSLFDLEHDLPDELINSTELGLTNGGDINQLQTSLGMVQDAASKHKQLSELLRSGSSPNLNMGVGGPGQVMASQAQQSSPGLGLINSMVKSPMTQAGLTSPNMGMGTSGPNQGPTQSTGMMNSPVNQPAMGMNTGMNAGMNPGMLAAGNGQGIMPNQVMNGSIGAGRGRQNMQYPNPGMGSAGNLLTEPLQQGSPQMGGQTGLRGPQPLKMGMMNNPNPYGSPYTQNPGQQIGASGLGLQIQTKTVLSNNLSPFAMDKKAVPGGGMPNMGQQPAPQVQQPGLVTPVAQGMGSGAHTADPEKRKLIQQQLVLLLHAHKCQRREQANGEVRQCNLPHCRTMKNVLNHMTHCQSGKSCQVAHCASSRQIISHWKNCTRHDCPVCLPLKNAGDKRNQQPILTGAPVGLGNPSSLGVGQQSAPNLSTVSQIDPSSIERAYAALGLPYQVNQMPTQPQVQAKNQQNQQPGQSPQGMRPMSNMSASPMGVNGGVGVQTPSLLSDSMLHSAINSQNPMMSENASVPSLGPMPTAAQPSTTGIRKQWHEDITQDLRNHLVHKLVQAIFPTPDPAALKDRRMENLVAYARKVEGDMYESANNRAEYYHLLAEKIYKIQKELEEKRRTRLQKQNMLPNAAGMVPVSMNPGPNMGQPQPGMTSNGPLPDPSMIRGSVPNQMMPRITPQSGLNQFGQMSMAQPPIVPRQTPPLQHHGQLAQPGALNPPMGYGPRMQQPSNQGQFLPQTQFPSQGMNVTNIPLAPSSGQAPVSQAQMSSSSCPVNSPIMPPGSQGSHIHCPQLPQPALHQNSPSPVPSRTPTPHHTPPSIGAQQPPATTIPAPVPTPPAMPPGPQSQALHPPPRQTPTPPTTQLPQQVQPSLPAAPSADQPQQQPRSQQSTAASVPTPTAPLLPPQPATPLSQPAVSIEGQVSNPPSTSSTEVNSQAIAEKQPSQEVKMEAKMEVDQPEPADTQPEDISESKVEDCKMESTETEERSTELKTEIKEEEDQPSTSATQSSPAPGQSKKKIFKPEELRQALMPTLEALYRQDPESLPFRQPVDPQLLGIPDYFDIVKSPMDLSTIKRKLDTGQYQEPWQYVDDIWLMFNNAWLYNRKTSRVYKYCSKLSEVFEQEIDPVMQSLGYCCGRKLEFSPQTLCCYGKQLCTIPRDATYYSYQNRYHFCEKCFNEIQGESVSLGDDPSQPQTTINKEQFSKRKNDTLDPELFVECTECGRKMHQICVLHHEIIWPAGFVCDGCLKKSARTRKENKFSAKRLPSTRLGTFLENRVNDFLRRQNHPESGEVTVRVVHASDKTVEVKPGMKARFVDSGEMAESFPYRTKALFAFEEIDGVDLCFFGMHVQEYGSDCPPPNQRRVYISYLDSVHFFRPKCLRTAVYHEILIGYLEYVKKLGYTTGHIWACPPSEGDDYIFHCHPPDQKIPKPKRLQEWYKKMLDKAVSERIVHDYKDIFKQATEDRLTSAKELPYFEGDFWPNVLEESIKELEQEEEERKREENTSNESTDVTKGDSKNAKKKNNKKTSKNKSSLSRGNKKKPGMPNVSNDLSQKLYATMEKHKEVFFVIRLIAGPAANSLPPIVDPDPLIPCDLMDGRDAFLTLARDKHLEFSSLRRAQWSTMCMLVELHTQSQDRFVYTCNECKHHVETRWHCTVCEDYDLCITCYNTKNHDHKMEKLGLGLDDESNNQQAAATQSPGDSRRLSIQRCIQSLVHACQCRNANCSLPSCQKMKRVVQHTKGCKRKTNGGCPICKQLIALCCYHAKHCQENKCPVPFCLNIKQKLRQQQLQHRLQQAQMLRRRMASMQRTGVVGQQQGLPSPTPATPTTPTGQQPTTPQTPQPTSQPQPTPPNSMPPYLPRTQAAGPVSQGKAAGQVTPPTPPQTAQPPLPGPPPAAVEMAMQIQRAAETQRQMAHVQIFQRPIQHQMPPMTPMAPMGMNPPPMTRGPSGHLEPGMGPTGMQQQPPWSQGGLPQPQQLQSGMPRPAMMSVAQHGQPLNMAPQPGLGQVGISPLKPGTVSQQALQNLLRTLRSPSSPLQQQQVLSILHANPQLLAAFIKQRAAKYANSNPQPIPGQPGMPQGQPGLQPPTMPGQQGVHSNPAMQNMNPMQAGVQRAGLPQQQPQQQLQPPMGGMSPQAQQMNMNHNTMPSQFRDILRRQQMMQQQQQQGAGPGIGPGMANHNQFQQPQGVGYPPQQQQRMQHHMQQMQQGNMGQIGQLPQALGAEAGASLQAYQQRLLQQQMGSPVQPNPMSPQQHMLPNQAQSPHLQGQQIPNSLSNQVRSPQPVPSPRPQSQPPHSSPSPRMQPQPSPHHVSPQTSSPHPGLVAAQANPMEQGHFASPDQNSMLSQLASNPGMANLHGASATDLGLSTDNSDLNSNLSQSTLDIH

Compound	IC50
C=C1[C@@H](O)CC[C@]2(C)[C@H]3CC[C@@]4(C)[C@]35O[C@]4([C@H](C)CC[C@@H](C)C(C)C)CCC(=O)[C@@H]5C[C@@H]12	> 10 µM
C=C1[C@@H](O)CC[C@@]2(C)[C@H]1C[C@]1(O)C(=O)CC[C@H]([C@H](C)CC[C@@H](C)C(C)C)[C@@]3(C)CC[C@]24O[C@@]413	> 10 µM
C=C1[C@@H](O)CC[C@]2(C)C3=C4[C@@H](C[C@@H]12)C(=O)CC[C@H]([C@H](C)CC[C@@H](C)C(C)C)[C@@]4(C)CC3	3.3 µM
C=C1[C@@H](O)CC[C@@]2(C)[C@H]1CC1=C3[C@@H]2CC[C@]3(C)[C@@H]([C@H](C)CC[C@@H](C)C(C)C)CCC1=O	> 10 µM
C=C1[C@@H](O)CC[C@@]2(C)[C@H]1C[C@H]1C(=O)CC[C@H]([C@H](C)CC[C@@H](C)C(C)C)[C@@]3(C)CC[C@]24O[C@]143	8.8 µM
C=C(C)[C@H](CC=C(C)C)C[C@]12C[C@H](CC=C(C)C)C(C)(C)[C@](CC=C(C)C)(C(=O)C(C(=O)c3ccc(O)c(O)c3)=C1O)C2=O	0.5 µM
